Test results taken from US20110144039A1, “ANTIOXIDATIVE AND HEPATOPROTECTIVE COMPOSITIONS CONTAINING DIARYHEPTANOIDS FROM ALNUS JAPONICA” (RNL BIO CO., LTD., priority 2009, published 2011).
Read-outs that look alike come from different tables or passages of the source.

Assays:
[1] = TOSC (total oxyradical scavenging capacity) assay, peroxyl radicals generated from ABAP; assay type: biochemical; conditions: both oxyradicals; for scavenging capacity for peroxyl radicals and peroxynitrite: rank in words
Method: In order to measure the antioxidative activities of the A. japonica sample fractions, the radical scavenging capacities of the fractions were measured in the following manner using the total oxyradical scavenging capacity (TOSC) assay. The TOSC assay was performed by a modification of the method proposed by Winston et al. (Free Radic. Biol. Med., 24: 480˜493, 1998) (J. Agric. Food Chem. 56, 10510-10514, 2008).
Peroxyl radicals were generated by the thermal homolysis of 2,2′-azobisamidinopropane (ABAP) at 35° C., and peroxynitrite was generated by the spontaneous decomposition of SIN-1.
Then, a total volume of 1 ml of the reaction solution was placed in a 10-ml vial sealed with a rubber septum. For detection of the produced ethylene gas, a gas chromatograph (GC), equipped with a DB-05 capillary column and a flame ionization detector) (FID), was used, an oven set was 60° C., and the injector and the detector were set at 180° C. As a mobile phase, helium was injected into the column at a rate of 2 ml/min. For quantitative determination of the amount of ethylene gas in the vial, 150 μl of gas was sampled from the vial with a gas-tight syringe using a headspace technique and injected into the injector.
The area under the kinetic curve (AUC) was obtained by integrating the graph determined from the results of the above experiment, and the TOSC value was calculated according to the following equation 1 and shown in Table 1 below:
TOSC=100−(∫SA/∫CA×100) [Equation 1]

[2] = system: primarily cultured hepatocytes of rats; test: Hepatoprotective activity: inhibition of tert-butyl hydroperoxide-induced necrosis (LDH release) in primary hepatocytes; assay type: cell-based, white rats; conditions: 1.2 mM tBH for 50 minutes
Method: In order to measure the hepatoprotective activities of the A. japonica sample fractions, the primarily cultured hepatocytes of white rats were isolated, and then the inhibitory abilities of the fractions against necrosis induced by treating the isolated hepatocytes with 1.2 mM of tert-butyl hydroperoxide for 50 minutes were examined (Park E J et al., Planta Med, 71: 508˜513, 2005).
Hepatocytes were isolated from white rats according to the method of Seglen et al. Briefly, white rats were anesthetized and the abdomen was incised. Then, a catheter was inserted into the portal vein and perfused with Ca^2+, Mg^2+-free Hank's balanced salt solution bubbled with a mixed gas of 5% CO2 and 95% O2 at 37° C. so as to remove blood from the liver. Then, the catheter was perfused with 0.05% type IV collagenase and 1 mM CaCl2 solution. The liver tissue was removed from the body, and a hepatocyte suspension was prepared from the liver tissue and centrifuged at 50×g for 2 minutes. The precipitated hepatocytes were collected and washed twice with Ca^2+, Mg^2+-free Hank's balanced salt solution. The washed hepatocytes were added at a concentration of 1×10^6 cells/ml to Williams' Medium E (WME, GibcoBRL, USA) containing 10% (v/v) fetal bovine serum (FBS, GibcoBRL), 10^−8 M insulin, 50 U/ml of penicillin and 50 μg/ml of streptomycin (Sigma) in an incubator coated with type I collagen, and were then cultured under 5% CO2 at 37° C. After 2 hours of the culture, the cells were washed with Hank's balanced salt solution to remove non-adhered cells, and the medium was replaced with fresh medium. Then, the cells were cultured under 5% CO2 at 37° C. for 16 hours and then used in the experiment.
Herein, tBH is metabolized into free radical intermediates, which initiate lipid peroxidation to affect the cell integrity, and release LDH into the medium, thus forming covalent bonds with cellular molecules causing damage to the cells.

[3] = read-out: LDH release inhibitory rate (ED50)
[4] = Rattus norvegicus, Hepatocyte, 50 min, means ± SE of three independent experiments in triplicate, read-out: ED50 (the source's name)
[5] = Rattus norvegicus, Hepatocyte, 50 min, read-out: LDH release inhibitory rate (ED50)

rubranoside C
scavenging capacity for peroxyl radicals and peroxynitrite [1]: second highest
EC50 [2, 3]: 12.8 µM

O=C(/C=C/CCc1ccc(O)c(O)c1)CCc1ccc(O)c(O)c1 [hirsutenone]
scavenging capacity for peroxyl radicals and peroxynitrite [1]: highest
EC50 [2, 4]: 3.08 ± 0.14 µM
EC50 [2, 5]: 3.08 µM

COc1cc(C2Oc3cc([C@H]4Oc5cc(O)cc(O)c5C(=O)[C@@H]4O)ccc3OC2CO)ccc1O (stereo partly shown) [Silibinin, reference compound]
EC50 [2, 4]: 131 ± 6.7 µM
EC50 [2, 5]: 131 µM

O=C(CCc1ccc(O)c(O)c1)C[C@@H](O)CCc1ccc(O)c(O)c1 [hirsutanonol]
scavenging capacity for peroxyl radicals and peroxynitrite [1]: highest
EC50 [2, 4]: 6.28 ± 0.81 µM
EC50 [2, 5]: 6.28 µM

alnuside A
scavenging capacity for peroxyl radicals and peroxynitrite [1]: second highest
EC50 [2, 3]: 26.5 µM

platyphyllonol-5-xylose [Platyphyllone-5-xylose]
activities against reactive oxygen species ([1]; in words): weak
effect on the inhibition of LDH release ([2]; in words): no effect

alnuside B
scavenging capacity for peroxyl radicals and peroxynitrite [1]: second highest
EC50 [2, 3]: 25.9 µM
